Tested on: monocyte-derived dendritic cells (moDCs)
Assay: Multiplex xMAP cytokine production, direct stimulation of moDCs
Type: cell-based, human
Conditions: 24 h
Experimental: Primary peripheral blood mononuclear cells (PBMCs) collected from healthy donors were purchased from American Type Culture Collection (ATCC PCS-800-011). Primary CD14^+ blood monocytes were isolated from PBMCs by adherence according to standard technique. Monocyte-derived mature dendritic cells (moDCs) were obtained from CD14^+ blood monocytes according to the previously reported protocol. Briefly, blood monocytes were incubated in a complete RPMI-1640 medium (Capricorn Scientific, Ebsdorfergrund, Germany), containing 10% fetal bovine serum (FBS, Capricorn Scientific, Ebsdorfergrund, Germany), 1× antibiotic-antimycotic solution (Invitrogen, Waltham, MA, USA), 800 U/mL rhGM-CSF (Sci-Store, Moscow, Russia) and 500 U/mL rhIL-4 (Sci-Store) for 3 days in CellXpert C170i CO2-incubator (Eppendorf, Hamburg, Germany). Fresh complete RPMI-1640 medium with rhGM-CSF and rhIL-4 was added to the culture on day 3. On day 5, fresh complete RPMI-1640 containing 100 U/mL rhTNF-α (Sigma-Aldrich, St. Louis, MO, USA) as well as 800 U/mL rhGM-CSF and 500 U/mL rhIL-4 was added and the culture was incubated for another 4 days until full maturation.
Monocytes and moDCs were seeded into the wells of 48- and 24-well plates in the complete RPMI-1640 medium supplemented with 10% human AB serum (HABS, Capricorn Scientific) without antibiotics 24 h prior to the experiment, and kept in a humidified CO2-incubator (5% CO2, 37 °C). After 24 h, the medium in the wells of the 48-well plate was replaced by fresh complete RPMI-1640 medium with 10% HABS, supplemented with 2 µM of Psd1 for the sample wells or fresh medium alone for the control wells. Medium in the wells of the 24-well plate was replaced by fresh complete RPMI-1640 medium with 10% human serum without antibiotics. Then, Millicell inserts with Caco-2 monolayers with TEER > 400 Ωcm^2 were placed into the wells of the 24-well plate, containing monocytes or moDCs. Wells with Millicell inserts with Caco-2 monolayers without immune cells were used as control wells. Medium in apical chambers of Millicell inserts was replaced by fresh complete RPMI-1640 with 10% human serum medium containing Psd1 at the final concentration of 2 µM or Candida albicans at the concentration of 5 × 10^4 cells/mL or yeast cells together with the pea defensin at the same concentration. Fresh complete RPMI-1640 medium only with 10% human serum and without antibiotics was used in control wells. Plates were kept in CO2-incubator (5% CO2, 37 °C) for another 24 h. Culture supernatants from the wells of the 48-well plate and basolateral chambers of the 24-well plate were collected and stored at −70 °C degrees less than one month prior to the analytes assessment.
The following 48 analytes were measured at a protein level by multiplex xMAP technology using the MILLIPLEX Human Cytokine/Chemokine/Growth Factor Panel A kit (HCYTA-60K-PX48, Merck, Darmstadt, Germany): sCD40L, EGF, Eotaxin-1/CCL11, FGF-2/FGF-basic, Flt-3 ligand, Fractalkine/CX3CL1, G-CSF, GM-CSF, GROα/CXCL1, IFNα2, IFNγ, IL-1α, IL-1β, IL-1RA, IL-2, IL-3, IL-4, IL-5, IL-6, IL-7, IL-8/CXCL8, IL-9, IL-10, IL-12(p40), IL-12(p70), IL-13, IL-15, IL-17A/CTLA8, IL-17E/IL-25, IL-17F, IL-18, IL-22, IL-27, IP-10/CXCL10, MCP-1/CCL2, MCP-3/CCL7, M-CSF, MDC/CCL22, MIG/CXCL9, MIP-1α/CCL3, MIP-1β/CCL4, PDGF-AA, PDGF-AB/BB, RANTES/CCL5, TGFα, TNFα, TNFβ, and VEGF-A. Multiplex-based assay read-out was performed using the MAGPIX system (Merck) with the xPONENT 4.2 software (Merck) in accordance with the manufacturer’s instruction with overnight incubation of the samples with primary antibodies. A final analysis was carried out with the MILLIPLEX Analyst v5.1 software (Merck). Measurements were performed twice for each sample. Release of the analytes in control and experimental samples was compared with an unpaired two-sample t-test using GraphPad Prism v.8.0.1 (GraphPad Software, Inc., San Diego, CA, USA). The p values ≤ 0.05 were considered significant.

Substance: Psd1: pea defensin from Pisum sativum (UNIPROT P81929), recombinant peptide overexpressed in Escherichia coli (KTCEHLADTYRGVCFTNASCDDHCKNKAHLISGTCHNWKCFCTQNC; UniProt P81929 1-46, looked up)
- EGF level (moDCs+Psd1, 2 µM, supernatant): 6.22 pg/mL
- Eotaxin level (moDCs+Psd1, 2 µM, supernatant): <3.52↓ pg/ml
- FGF-2 level (moDCs+Psd1, 2 µM, supernatant): 55.36 pg/mL
- FLT-3L level (moDCs+Psd1, 2 µM, supernatant): 1.05 pg/mL
- Fractalkine level (moDCs+Psd1, 2 µM, supernatant): <17.82↓ pg/ml
- G-CSF level (moDCs+Psd1, 2 µM, supernatant): 49.49 pg/mL
- GM-CSF level (moDCs+Psd1, 2 µM, supernatant): 11.89 pg/mL
- GROa level (moDCs+Psd1, 2 µM, supernatant): <0.61↓ pg/ml
- IFNa2 level (moDCs+Psd1, 2 µM, supernatant): 12.78 pg/mL
- IFNg level (moDCs+Psd1, 2 µM, supernatant): 7.25 pg/mL
- IL-1RA level (moDCs+Psd1, 2 µM, supernatant): 53.29 pg/mL
- IL-1a level (moDCs+Psd1, 2 µM, supernatant): 12.23 pg/mL
- IL-1b level (moDCs+Psd1, 2 µM, supernatant): <2.26↓ pg/ml
- IL-2 level (moDCs+Psd1, 2 µM, supernatant): 1.82 pg/mL
- IL-3 level (moDCs+Psd1, 2 µM, supernatant): 1.61 pg/mL
- IL-4 level (moDCs+Psd1, 2 µM, supernatant): <1.14↓ pg/ml
- IL-5 level (moDCs+Psd1, 2 µM, supernatant): 4.15 pg/mL
- IL-6 level (moDCs+Psd1, 2 µM, supernatant): 14.4 pg/mL
- IL-7 level (moDCs+Psd1, 2 µM, supernatant): <0.38↓ pg/ml
- IL-8 level (moDCs+Psd1, 2 µM, supernatant): 345.9 pg/mL
- IL-9 level (moDCs+Psd1, 2 µM, supernatant): 3.67 pg/mL
- IL-10 level (moDCs+Psd1, 2 µM, supernatant): 33.74 pg/mL
- IL-12 (p40) level (moDCs+Psd1, 2 µM, supernatant): 98.57 pg/mL
- IL-12 (p70) level (moDCs+Psd1, 2 µM, supernatant): <1.68↓ pg/ml
- IL-13 level (moDCs+Psd1, 2 µM, supernatant): 19.51 pg/mL
- IL-15 level (moDCs+Psd1, 2 µM, supernatant): 12.91 pg/mL
- IL-17A level (moDCs+Psd1, 2 µM, supernatant): 3.9 pg/mL
- IL-17E/IL-25 level (moDCs+Psd1, 2 µM, supernatant): <18.85↓ pg/ml
- IL-17F level (moDCs+Psd1, 2 µM, supernatant): <19.03↓ pg/ml
- IL-18 level (moDCs+Psd1, 2 µM, supernatant): 2.59 pg/mL
- IL-22 level (moDCs+Psd1, 2 µM, supernatant): 12.46 pg/mL
- IL-27 level (moDCs+Psd1, 2 µM, supernatant): 135.68 pg/mL
- IP-10 level (moDCs+Psd1, 2 µM, supernatant): 8892 pg/mL
- M-GSF level (moDCs+Psd1, 2 µM, supernatant): 218.78 pg/mL
- MCP-1 level (moDCs+Psd1, 2 µM, supernatant): 1760 pg/mL
- MCP-3 level (moDCs+Psd1, 2 µM, supernatant): 49.77 pg/mL
- MDC level (moDCs+Psd1, 2 µM, supernatant): 3016 pg/mL
- MIG level (moDCs+Psd1, 2 µM, supernatant): 30050 pg/mL
- MIP-1a level (moDCs+Psd1, 2 µM, supernatant): 185.33 pg/mL
- MIP-1b level (moDCs+Psd1, 2 µM, supernatant): 554.97 pg/mL
- PDGF-AA level (moDCs+Psd1, 2 µM, supernatant): 89.5 pg/mL
- PDGF-AB/BB level (moDCs+Psd1, 2 µM, supernatant): 139.81 pg/mL
- RANTES level (moDCs+Psd1, 2 µM, supernatant): 65.35 pg/mL
- TGF-a level (moDCs+Psd1, 2 µM, supernatant): 113.74 pg/mL
- TNFa level (moDCs+Psd1, 2 µM, supernatant): 55.68 pg/mL
- TNFb level (moDCs+Psd1, 2 µM, supernatant): 2.29 pg/mL
- VEGFa level (moDCs+Psd1, 2 µM, supernatant): <1.40↓ pg/ml
- sCD40L level (moDCs+Psd1, 2 µM, supernatant): 133.96 pg/mL
- increase in IL-12, IL-15, IL-27 and MCP-1 (moDCs, 2 μM): statistically significant
- production of TNFα, IL-6, IL-8, IP-10, MCP-3, and G-CSF (moDCs, 2 μM): increased

— PMC10178127, “Immunomodulatory Effects of the Pea Defensin Psd1 in the Caco-2/Immune Cells Co-Culture upon Candida albicans Infection” (International Journal of Molecular Sciences, 2023)
